Test results from patent US9169290B2, “Peptides and their use” (priority 2007, dated 2015).
Values after ≈ are worked out from the molar mass of the structure shown. Read-outs that look alike come from different tables or passages of the source.

Assays:
[1] = tested on: A. niger; test: Broth dilution antifungal susceptibility testing of filamentous fungi (CLSI M38-P), MIC; assay type: cell-based, Aspergillus niger
Protocol: (§1) Broth Dilution Antifungal Susceptibility Testing
(§2) The sensitivity of relevant fungal strains to the peptides was determined using Clinical Laboratory Standard Institute (CLSI; formerly NCCLS) Approved Standards. Fungal susceptibility was tested using “Reference Method for Broth Dilution Antifungal Susceptibility Testing of Filamentous Fungi; Approved Standard M38-P”, and yeast susceptibility was tested using “Reference Method for Broth Dilution Antifungal Susceptibility Testing of Yeasts; Approved Standard—Second Edition M27-A”.

[2] = tested on: C. albicans; assay type: cell-based, Candida albicans
Protocol: as §1
(§3) The sensitivity of relevant fungal strains to the peptides was determined using Clinical Laboratory Standard Institute (CLSI; formerly NCCLS) Approved Standards.

[3] = tested on: C. krusei; assay type: cell-based, Candida krusei
Protocol: as §1, §3

[4] = tested on: Cryptococcus neoformans; test: Broth dilution antifungal susceptibility testing of yeasts (CLSI M27-A), MIC; assay type: cell-based; conditions: Cryptococcus neoformans strain DSM11959
Protocol: as §1, §2

[5] = tested on: Penicillium spp.; test: Broth dilution antifungal susceptibility testing, MIC; assay type: cell-based; conditions: Penicillium spp. strain DM 2006 1285b
Protocol: as §1, §2

[6] = tested on: Alternaria spp.; test: as above; assay type: cell-based; conditions: Alternaria spp. strain DM 2006 1218a
Protocol: as §1, §2

[7] = tested on: Scopulariopsis brevicaulis; test: as above; assay type: cell-based; conditions: Scopulariopsis brevicaulis strain DM 2006 1025
Protocol: as §1, §2

[8] = tested on: Fusarium solani; test: as above; assay type: cell-based; conditions: Fusarium solani strain NCPF2877
Protocol: as §1, §2

[9] = tested on: C. glabrata; test: Broth dilution antifungal susceptibility testing of yeasts (CLSI M27-A), MIC; assay type: cell-based, Candida glabrata
Protocol: as §1, §2

[10] = tested on: A. nidulans; test: Broth dilution antifungal susceptibility testing of filamentous fungi (CLSI M38-P), MIC; assay type: cell-based, Aspergillus nidulans
Protocol: as §1, §2

[11] = tested on: C. tropicalis; test: Broth dilution antifungal susceptibility testing of yeasts (CLSI M27-A), MIC; assay type: cell-based, Candida tropicalis
Protocol: as §1, §2

[12] = tested on: C. parapsilosis; assay type: cell-based, Candida parapsilosis
Protocol: as §1
The sensitivity of relevant fungal strains to the peptides was determined using Clinical Laboratory Standard Institute (CLSI; formerly NCCLS) Approved Standards. Fungal susceptibility was tested using “Reference Method for Broth Dilution Antifungal Susceptibility Testing of Filamentous Fungi; […];

Structure (SMILES): N=C(N)NCCC[C@@H](N)C(=O)N[C@H](CCCNC(=N)N)C(=O)N[C@H](CCCNC(=N)N)C(=O)N[C@H](CCCNC(=N)N)C(=O)N[C@H](CCCNC(=N)N)C(=O)N[C@H](CCCNC(=N)N)C(=O)N[C@H](CCCNC(=N)N)C(=O)N[C@H](CCCNC(=N)N)C(=O)N[C@H](CCCNC(=N)N)C(=O)N[C@H](CCCNC(=N)N)C(=O)N[C@H](CCCNC(=N)N)C(=O)N[C@H](CCCNC(=N)N)C(=O)N[C@H](CCCNC(=N)N)C(=O)O [NP339, dRdRdRdRdRdRdRdRdRdRdRdRdR]
- MIC ([1]; A. niger strain AFG 01-60): 62.5 µM (≈ 128 µg/mL)
- MIC ([1]; A. niger strain AFG 01-237): 1000 µM (≈ 2050 µg/mL)
- MIC ([1]; A. niger strain AFG 01-381): 62.5 µM (≈ 128 µg/mL)
- MIC ([1]; A. niger strain AFG 01-385): 1000 µM (≈ 2050 µg/mL)
- MIC ([1]; A. niger strain AFG 01-423): 62.5 µM (≈ 128 µg/mL)
- MIC ([1]; A. niger strain AFG 01-783): 62.5 µM (≈ 128 µg/mL)
- MIC ([1]; A. niger strain AFG 01-809): 62.5 µM (≈ 128 µg/mL)
- MIC ([1]; A. niger strain AFG 01-1237): 62.5 µM (≈ 128 µg/mL)
- MIC ([1]; A. niger strain AFG 01-1286): 62.5 µM (≈ 128 µg/mL)
- MIC ([1]; A. niger strain AFG 01-1424): 62.5 µM (≈ 128 µg/mL)
- MIC ([1]; A. niger strain AFG 01-1494): 62.5 µM (≈ 128 µg/mL)
- MIC ([1]; A. niger strain AFG 01-2103): 62.5 µM (≈ 128 µg/mL)
- MIC ([1]; A. niger strain AFG 01-2112): 62.5 µM (≈ 128 µg/mL)
- MIC ([1]; A. niger strain AFG 01-2267): 62.5 µM (≈ 128 µg/mL)
- MIC ([1]; A. niger strain AFG 01-2620): >4000 µM
- MIC ([1]; A. niger strain AFG 01-2840): 62.5 µM (≈ 128 µg/mL)
- MIC ([1]; A. niger strain AFG J940179): 62.5 µM (≈ 128 µg/mL)
- MIC ([1]; A. niger strain AFG J970467): 62.5 µM (≈ 128 µg/mL)
- MIC ([1]; A. niger strain NCPF2022): 7.8 µM (≈ 16 µg/mL)
- MIC, Candida albicans ATCC90028 [2]: 2 µM (≈ 4.1 µg/mL)
- MIC ([3]; C. krusei strain AM2005/0492): 1 µM (≈ 2.05 µg/mL)
- MIC ([3]; C. krusei strain AM2005/0494): 1 µM (≈ 2.05 µg/mL)
- MIC ([3]; C. krusei strain AM2005/0496): 2 µM (≈ 4.1 µg/mL)
- MIC ([3]; C. krusei strain AM2005/0498): 1 µM (≈ 2.05 µg/mL)
- MIC ([3]; C. krusei strain AM2005/0525): 2 µM (≈ 4.1 µg/mL)
- MIC ([3]; C. krusei strain AM2005/0531): 2 µM (≈ 4.1 µg/mL)
- MIC ([3]; C. krusei strain AM2006/0127): 1 µM (≈ 2.05 µg/mL)
- MIC ([3]; C. krusei strain AM2007/0102): 2 µM (≈ 4.1 µg/mL)
- MIC ([3]; C. krusei strain AM2007/0103): 2 µM (≈ 4.1 µg/mL)
- MIC ([3]; C. krusei strain AM2007/0104): 1 µM (≈ 2.05 µg/mL)
- MIC ([3]; C. krusei strain AM2007/0105): 1 µM (≈ 2.05 µg/mL)
- MIC ([3]; C. krusei strain AM2007/0106): 1 µM (≈ 2.05 µg/mL)
- MIC ([3]; C. krusei strain AM2007/0107): 1 µM (≈ 2.05 µg/mL)
- MIC ([3]; C. krusei strain AM2007/0109): 1 µM (≈ 2.05 µg/mL)
- MIC ([3]; C. krusei strain AM30274.04): 2 µM (≈ 4.1 µg/mL)
- MIC ([3]; C. krusei strain AM30308.03.05): 1 µM (≈ 2.05 µg/mL)
- MIC ([3]; C. krusei strain AM30332.04.05): 2 µM (≈ 4.1 µg/mL)
- MIC ([3]; C. krusei strain AM30455.04.05): 1 µM (≈ 2.05 µg/mL)
- MIC ([3]; C. krusei strain AM31194/04/05): 2 µM (≈ 4.1 µg/mL)
- MIC ([3]; C. krusei strain AM31300/04/05): 2 µM (≈ 4.1 µg/mL)
- MIC ([3]; C. krusei strain ATCC6258): 2 µM (≈ 4.1 µg/mL)
- MIC [4]: 1 µM (≈ 2.05 µg/mL)
- MIC [5]: 15.6 µM (≈ 32 µg/mL)
- MIC [6]: 7.8 µM (≈ 16 µg/mL)
- MIC [7]: 1 µM (≈ 2.05 µg/mL)
- MIC [8]: 3.9 µM (≈ 7.99 µg/mL)
- MIC ([9]; C. glabrata strain AM2002/0085): 2 µM (≈ 4.1 µg/mL)
- MIC ([9]; C. glabrata strain AM2002/0088): 1 µM (≈ 2.05 µg/mL)
- MIC ([9]; C. glabrata strain AM2007/0113): 2 µM (≈ 4.1 µg/mL)
- MIC ([9]; C. glabrata strain AM2007/0114): 1 µM (≈ 2.05 µg/mL)
- MIC ([9]; C. glabrata strain AM2007/0115): 2 µM (≈ 4.1 µg/mL)
- MIC ([9]; C. glabrata strain AM2007/0116): 1 µM (≈ 2.05 µg/mL)
- MIC ([9]; C. glabrata strain AM2007/0117): 1 µM (≈ 2.05 µg/mL)
- MIC ([9]; C. glabrata strain AM2007/0118): 2 µM (≈ 4.1 µg/mL)
- MIC ([9]; C. glabrata strain AM2007/0119): 1 µM (≈ 2.05 µg/mL)
- MIC ([9]; C. glabrata strain AM2007/0120): 2 µM (≈ 4.1 µg/mL)
- MIC ([9]; C. glabrata strain AM2007/0121): 1 µM (≈ 2.05 µg/mL)
- MIC ([9]; C. glabrata strain AM2007/0122): 1 µM (≈ 2.05 µg/mL)
- MIC ([9]; C. glabrata strain AM2007/0123): 1 µM (≈ 2.05 µg/mL)
- MIC ([9]; C. glabrata strain AM2007/0124): 1 µM (≈ 2.05 µg/mL)
- MIC ([9]; C. glabrata strain AM2007/0125): 2 µM (≈ 4.1 µg/mL)
- MIC ([9]; C. glabrata strain AM2007/0126): 1 µM (≈ 2.05 µg/mL)
- MIC ([9]; C. glabrata strain AM2007/0127): 1 µM (≈ 2.05 µg/mL)
- MIC ([9]; C. glabrata strain AM2007/0128): 1 µM (≈ 2.05 µg/mL)
- MIC ([9]; C. glabrata strain AM2007/0129): 1 µM (≈ 2.05 µg/mL)
- MIC ([9]; C. glabrata strain AM2007/0130): 1 µM (≈ 2.05 µg/mL)
- MIC ([10]; A nidulans strain AFG97-71): 4000 µM (≈ 8190 µg/mL)
- MIC ([10]; A nidulans strain AFG99-247): 256 µM (≈ 524 µg/mL)
- MIC ([10]; A nidulans strain AFG99-1373): 62.5 µM (≈ 128 µg/mL)
- MIC ([10]; A nidulans strain NCPF2691): 3.9 µM (≈ 7.99 µg/mL)
- MIC ([10]; A. nidulans strain AFG00-676): 1000 µM (≈ 2050 µg/mL)
- MIC ([10]; A. nidulans strain AFG01-835): 1000 µM (≈ 2050 µg/mL)
- MIC ([10]; A. nidulans strain AFG01-1716): 62.5 µM (≈ 128 µg/mL)
- MIC ([10]; A. nidulans strain AFG97-453): 62.5 µM (≈ 128 µg/mL)
- MIC ([10]; A. nidulans strain AFG 98-281): 62.5 µM (≈ 128 µg/mL)
- MIC ([10]; A. nidulans strain AFG99-2387): 62.5 µM (≈ 128 µg/mL)
- MIC ([10]; A. nidulans strain AFG9811-35): 125 µM (≈ 256 µg/mL)
- MIC ([10]; A. nidulans strain AFGR2952): 62.5 µM (≈ 128 µg/mL)
- MIC ([11]; C. tropicalis strain AM2004/0087): 1 µM (≈ 2.05 µg/mL)
- MIC ([11]; C. tropicalis strain AM2004/0088): 1 µM (≈ 2.05 µg/mL)
- MIC ([11]; C. tropicalis strain AM2004/0089): 1 µM (≈ 2.05 µg/mL)
- MIC ([11]; C. tropicalis strain AM2004/0090): 1 µM (≈ 2.05 µg/mL)
- MIC ([11]; C. tropicalis strain AM2004/0091): 1 µM (≈ 2.05 µg/mL)
- MIC ([11]; C. tropicalis strain ATCC750): 2 µM (≈ 4.1 µg/mL)
- MIC ([12]; C. parapsilosis strain AM2004/0133): 1 to 2 µM
- MIC ([12]; C. parapsilosis strain AM2005-0112): 2 µM (≈ 4.1 µg/mL)
- MIC ([12]; C. parapsilosis strain AM2005/0233): 8 µM (≈ 16.4 µg/mL)
- MIC ([12]; C. parapsilosis strain AM2005/0237): 1 µM (≈ 2.05 µg/mL)
- MIC ([12]; C. parapsilosis strain AM2005/0238): 16 µM (≈ 32.8 µg/mL)
- MIC ([12]; C. parapsilosis strain AM2005/0239): 1 µM (≈ 2.05 µg/mL)
- MIC ([12]; C. parapsilosis strain AM2005/0242): 4 µM (≈ 8.19 µg/mL)
- MIC ([12]; C. parapsilosis strain AM2005/0337): 2 to 16 µM
- MIC ([12]; C. parapsilosis strain AM2007/0131): 4 to 32 µM
- MIC ([12]; C. parapsilosis strain AM2007/0132): 16 to 32 µM
- MIC ([12]; C. parapsilosis strain AM2007/0134): 4 to 32 µM
- MIC ([12]; C. parapsilosis strain AM2007/0135): 1 to 2 µM
- MIC ([12]; C. parapsilosis strain AM2007/0136): 2 µM (≈ 4.1 µg/mL)
- MIC ([12]; C. parapsilosis strain AM2007/0137): 8 to 32 µM
- MIC ([12]; C. parapsilosis strain AM2007/0138): 16 to 32 µM
- MIC ([12]; C. parapsilosis strain AM2007/0139): 8 µM (≈ 16.4 µg/mL)
- MIC ([12]; C. parapsilosis strain ATCC22019): 1 to 2 µM
- MIC ([12]; C. parapsilosis strain ATCC90018): 2 µM (≈ 4.1 µg/mL)
